Results from patent US20200017449A1, “HYDANTOINS THAT MODULATE BACE-MEDIATED APP PROCESSING” (Buck Institute for Research on Aging, priority 2013, published 2020).
Read-outs that look alike come from different tables or passages of the source.

Key:
BACE1 = target: T1, BACE1 (Homo sapiens, UniProt P56817); experiment: BACE1 P5-P5′ fluorescence substrate assay (APP-BACE1 IC50); type: biochemical; conditions: Table 1; read-out: BACE IC50
T1 construct: purchased R&D 931-AS-050
Method: In one illustrative embodiment, an MBP-C125 APP695 wt fusion protein can be used as one of the substrates and the second substrate can be the commercially available P5-P5′ fluorescence substrate.
Briefly, 0.01 units of BACE1 were incubated for 1 h at room temperature with a BACE inhibitor, then the substrate was added to each well and the fluorescence was read immediately and every 30 min for 2 h. Activity was determine by dividing the fluorescence at a specific [BACE inhibitor] by the fluorescence at [BACE inhibitor]=0 μM, the % activity was plotted vs log[BACE inhibitor] to determine the APP-BACE1 using GraphPad Prism 5 (FIG. 6A)

[1] = test system: Aβ1-42 in SH-SY5Y neuroblastoma cells; experiment: Aβ1-42 in SH-SY5Y cells (ELISA); type: cell-based, human; conditions: FIG. 5
Method: SH-SY5Y neuroblastoma cells were seeded at 50,000 cells/well in a 96 wells plate for 24 h. Then their medium was changed for fresh medium supplemented with desired concentration of the hydantoin compound (e.g. compound 3). After 24 h, 20 μl of the medium was added to 2 μl of the complete protease inhibitor with 1 μM EDTA and kept at 4° C. until analysis using the ELISA assay below.
ELISA kits from Invitrogen were also used to quantify Aβ1-42 (KHB3544) in duplicate. For the Aβ1-42 ultrasensitive ELISA, samples were diluted 1:2 (50 μl CSF plus 50 μl kit-provided standard diluent buffer). Assays were performed according to manufacturer's instructions. In short, standards and samples were added to a plate pre-coated with a monoclonal capture antibody specific for the amino terminus of Hu Aβ. The samples were co-incubated with a rabbit detection antibody (Ab) specific for the carboxy terminus of the Aβ species being assayed for 3 hr at room temperature overnight at 4°(Aβ1-42) with gentle rocking. After washing, bound rabbit Ab was detected using a horseradish peroxidase-labeled anti-rabbit secondary Ab. After washing again, bound HRP-anti rabbit Ab was detected colorimetrically (Spectramax 190, Molecular Devices) by the addition of a substrate solution. […]

TRX-eAPP575-624 = target: T2, TRX-eAPP575-624 (Homo sapiens, UniProt P05067); experiment: SPR (Biacore) binding to ectodomain of APP
T2 construct: residues 575-624 of the APP ectodomain; made in house
T2 sequence (P05067 650-699): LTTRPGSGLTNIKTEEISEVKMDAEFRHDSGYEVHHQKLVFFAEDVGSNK
Method: The binding affinity of the compounds for the ectodomain of APP was determined using SPR. […] The eAPP was crosslinked linked to the CM5 Biacore chips (GE Healthcare).
FC1 served as a reference cell following a mock immobilization with buffer alone. For all cells, the flow rate was 10 μl per min. The chip was blocked with 1M ethanolamine (pH 8.5). […] Binding traces were recorded for each dilution with a binding phase of 60 seconds and a dissociation phase of 240 seconds. Each cycle was performed at 20° C. with a constant flow rate of 20 μl/min. An additional 240 seconds of buffer flow at 60 μl per min across the cells was applied as a regeneration phase to facilitate complete dissociation of the compound from the protein. The sensograms were obtained by subtraction of the reference and buffer signals using the Biacore T100 Evaluation software. The binding curves were modeled with the PRISM (Graphpad Inc).

Aβ42 = experiment: Aβ lowering in brain uptake animals; type: in vivo; conditions: NTg mice
Method: Compound 2 and other hydantoins were produced (see, e.g., compounds 1-5 pharmacokinetic evaluation of these hydantoins was determined in brain uptake assays using NTg mice (see, e.g., Table 1). It was also determined that Compound 1 lowered Aβ42 in the same animals at 5 mpk, while compound 3 lowered Aβ at 1 mpk.

[2] = Table 1, SPR, read-out: APP binding Kd

T1 sequence (P56817 46-501): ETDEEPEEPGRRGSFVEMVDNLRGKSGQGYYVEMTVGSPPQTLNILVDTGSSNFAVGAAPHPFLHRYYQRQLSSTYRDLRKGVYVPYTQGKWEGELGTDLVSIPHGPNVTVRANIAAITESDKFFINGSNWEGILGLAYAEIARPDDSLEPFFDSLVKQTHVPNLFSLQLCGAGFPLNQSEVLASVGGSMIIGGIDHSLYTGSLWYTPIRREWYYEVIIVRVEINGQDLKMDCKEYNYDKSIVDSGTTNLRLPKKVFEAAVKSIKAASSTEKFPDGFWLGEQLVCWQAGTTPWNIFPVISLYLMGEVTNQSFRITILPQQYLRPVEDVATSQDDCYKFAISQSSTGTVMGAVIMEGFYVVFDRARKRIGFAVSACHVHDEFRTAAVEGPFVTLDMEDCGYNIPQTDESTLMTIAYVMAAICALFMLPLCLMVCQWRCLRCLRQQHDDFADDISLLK

Row | SMILES | IC50 (BACE1) [µM] | Kd (TRX-eAPP575-624; [2]) [µM] | further results
1 | Cc1cc(C)cc(C2(c3cc(F)cc(F)c3)N=C(N)N(C)C2=O)c1 (stereo not drawn) [FAH-5, 2-amino-4-(3,5-difluorophenyl)-4-(3,5-dimethylphenyl)-1-methyl-1H-imidazol-5(4H)-one] | 5 |  | 
2 | Cc1cc(C2(c3cc(F)cc(F)c3)N=C(N)N(C)C2=O)ccc1OC(F)F (stereo not drawn) [FAH-3, 2-amino-4-(4-(difluoromethoxy)-3-methylphenyl)-4-(3,5-difluorophenyl)-1-methyl-1H-imidazol-5(4H)-one] | 0.52 |  | inhibition of Aβ production [1]: inhibition of Aβ production; binding to eAPP (qualitative) (TRX-eAPP575-624; SPR / BiaCore, FIG. 4): binding to eAPP575-624; lowering of Aβ in vivo (Aβ42; 1 mpk): lowered Aβ
3 | CN1C(=O)C(c2ccc(OC(F)F)cc2)(c2cc(F)cc(F)c2)N=C1N (stereo not drawn) [FAH-2, 2-amino-4-(4-(difluoromethoxy)phenyl)-4-(3,5-difluorophenyl)-1-methyl-1H-imidazol-5(4H)-one] | 2 | 8 | 
4 | CN1C(=O)C(c2cc(F)cc(F)c2)(c2cccc(OC(F)F)c2)N=C1N (stereo not drawn) [FAH-4, 2-amino-4-(3-(difluoromethoxy)phenyl)-4-(3,5-difluorophenyl)-1-methyl-1H-imidazol-5(4H)-one] | 2.1 |  | 
5 | CN1C(=O)C(c2ccccc2)(c2cc(F)cc(F)c2)N=C1N (stereo not drawn) [FAH-1] | 3 |  | lowering of Aβ42 in vivo (Aβ42; 5 mpk): lowered Aβ42
6 | Cc1cc(C2(c3cccc(F)c3)N=C(N)N(C)C2=O)ccc1OC(F)F (stereo not drawn) [FAH-17, 2-amino-4-(4-(difluoromethoxy)-3-methylphenyl)-4-(3-fluorophenyl)-1-methyl-1H-imidazol-5(4H)-one] |  | < 1 | Kd (TRX-eAPP575-624; Table 5, Secondary Screen, read-out: APP Kd): < 1 µM
